Test results: patent US20110319411A1, “ISOINDOLINONE AND RELATED ANALOGS AS SIRTUIN MODULATORS” (Sirtis Pharmaceuticals, Inc., priority 2008, published 2011)

Target: T1, SIRT1 (Homo sapiens, UniProt Q96EB6)
T1 construct: made in house; host or cells: E. coli BL21(DE3)
T1 sequence (Q96EB6 1-747): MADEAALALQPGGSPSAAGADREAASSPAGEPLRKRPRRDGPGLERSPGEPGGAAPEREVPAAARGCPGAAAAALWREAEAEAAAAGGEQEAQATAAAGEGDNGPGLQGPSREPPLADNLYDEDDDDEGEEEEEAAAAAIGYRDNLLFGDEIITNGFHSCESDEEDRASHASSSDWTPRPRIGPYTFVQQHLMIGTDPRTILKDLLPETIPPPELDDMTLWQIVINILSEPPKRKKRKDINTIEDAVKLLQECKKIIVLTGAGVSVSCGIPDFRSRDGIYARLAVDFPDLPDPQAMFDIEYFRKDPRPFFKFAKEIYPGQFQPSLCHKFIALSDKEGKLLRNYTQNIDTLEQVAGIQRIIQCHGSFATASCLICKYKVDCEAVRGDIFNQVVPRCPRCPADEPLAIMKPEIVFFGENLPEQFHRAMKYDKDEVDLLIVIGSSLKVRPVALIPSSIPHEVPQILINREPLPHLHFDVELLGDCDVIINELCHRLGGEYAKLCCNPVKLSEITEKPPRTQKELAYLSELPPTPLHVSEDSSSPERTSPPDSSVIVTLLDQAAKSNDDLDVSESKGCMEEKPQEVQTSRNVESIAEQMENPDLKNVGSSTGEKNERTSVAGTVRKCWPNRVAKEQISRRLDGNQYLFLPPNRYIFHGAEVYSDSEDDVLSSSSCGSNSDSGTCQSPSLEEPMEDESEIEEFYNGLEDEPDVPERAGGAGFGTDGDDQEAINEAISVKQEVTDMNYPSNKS
Assay: mass spectrometry based assay to identify modulators of SIRT1 activity
Assay type: biochemical
Settings: 10 nM SIRT1, 0.5 μM peptide substrate, 120 μM βNAD+, 25 minutes at 25° C.; for Emax: 25 min, read-out: % FOLD ACT. (percent maximum fold activation)
From the text: A mass spectrometry based assay was used to identify modulators of SIRT1 activity. The mass spectrometry based assay utilizes a peptide having 20 amino acid residues as follows: Ac-EE-K(biotin)-GQSTSSHSK(Ac)NleSTEG-K(5TMR)-EE-NH2 (SEQ ID NO: 1) wherein K(Ac) is an acetylated lysine residue and Nle is a norleucine. The peptide is labeled with the fluorophore 5TMR (excitation 540 nm/emission 580 nm) at the C-terminus. The sequence of the peptide substrate is based on p53 with several modifications. In addition, the methionine residue naturally present in the sequence was replaced with the norleucine because the methionine may be susceptible to oxidation during synthesis and purification.
The mass spectrometry assay is conducted as follows: 0.5 μM peptide substrate and 120 μM βNAD^+ is incubated with 10 nM SIRT1 for 25 minutes at 25° C. in a reaction buffer (50 mM Tris-acetate pH 8, 137 mM NaCl, 2.7 mM KCl, 1 mM MgCl2, 5 mM DTT, 0.05% BSA). Test compounds may be added to the reaction as described above. The SirT1 gene is cloned into a T7-promoter containing vector and transformed into BL21(DE3). After the 25 minute incubation with SIRT1, 10 μL of 10% formic acid is added to stop the reaction. Reactions are sealed and frozen for later mass spec analysis. Determination of the mass of the substrate peptide allows for precise determination of the degree of acetylation (i.e. starting material) as compared to deacetylated peptide (product).
A control for inhibition of sirtuin activity is conducted by adding 1 μL of 500 mM nicotinamide as a negative control at the start of the reaction (e.g., permits determination of maximum sirtuin inhibition). A control for activation of sirtuin activity is conducted using 10 nM of sirtuin protein, with 1 μL of DMSO in place of compound, to determine the amount of deacetylation of the substrate at a given timepoint within the linear range of the assay. This timepoint is the same as that used for test compounds and, within the linear range, the endpoint represents a change in velocity.
For the above assay, SIRT1 protein was expressed and purified as follows. The SirT1 gene was cloned into a T7-promoter containing vector and transformed into BL21(DE3). The protein was expressed by induction with 1 mM IPTG as an N-terminal His-tag fusion protein at 18° C. overnight and harvested at 30,000×g. Cells were lysed with lysozyme in lysis buffer (50 mM Tris-HCl, 2 mM Tris[2-carboxyethyl]phosphine (TCEP), 10 μM ZnCl2, 200 mM NaCl) and further treated with sonication for 10 min for complete lysis. The protein was purified over a Ni-NTA column (Amersham) and fractions containing pure protein were pooled, concentrated and run over a sizing column (Sephadex S200 26/60 global). The peak containing soluble protein was collected and run on an Ion-exchange column (MonoQ). Gradient elution (200 mM-500 mM NaCl) yielded pure protein. This protein was concentrated and dialyzed against dialysis buffer (20 mM Tris-HCl, 2 mM TCEP) overnight. The protein was aliquoted and frozen at −80° C. until further use.
Sirtuin modulating compounds that activated SIRT1 were identified using the assay described above and are shown below in Table 1. The EC1.5 values represent the concentration of test compounds that result in 150% activation of SIRT1. The EC1.5 values for the activating compounds are represented by A (EC1.5<10 μM), B (EC1-5 10-25 μM), C (EC1.5>25 μM). The percent maximum fold activation is represented by A (Fold activation >200%) or B (Fold Activation <200%).

For `O=C(Nc1cccc2c1C(=O)N(c1cccc(C(F)(F)F)c1)C2)c1cncc(N2CCOCC2)n1` [Compound 137], the “EC1.5 (concentration of test compound that results in 150% activation of SIRT1)” value was “C (EC1.5>25 μM)” and the Emax was less than 200%.
With `O=C(Nc1cccc2c1C(=O)N(c1cccc(C(F)(F)F)c1)C2)c1cncs1` [Compound 128] the “EC1.5 (concentration of test compound that results in 150% activation of SIRT1)” value was “C (EC1.5>25 μM)” and the Emax was less than 200%.
With `O=C(Nc1cccc2c1C(=O)N(c1cccc(C(F)(F)F)c1)C2)c1cncnc1` [Compound 126] the “EC1.5 (concentration of test compound that results in 150% activation of SIRT1)” value was “C (EC1.5>25 μM)” and the Emax was less than 200%.
`O=C(Nc1cccc2c1C(=O)N(c1cccc(C(F)(F)F)c1)C2)c1cnccn1` [Compound 100, N-(3-oxo-2-(3-(trifluoromethyl)phenyl)isoindolin-4-yl)pyrazine-2-carboxamide] was tested, and the “EC1.5 (concentration of test compound that results in 150% activation of SIRT1)” value was “A (EC1.5<10 μM)” and the Emax was less than 200%.
For `COc1ccc(N2Cc3cccc(NC(=O)Cc4cccnc4)c3C2=O)cc1` [Compound 118], the “EC1.5 (concentration of test compound that results in 150% activation of SIRT1)” value was “C (EC1.5>25 μM)” and the Emax was less than 200%.
`O=C(Nc1cccc2c1C(=O)N(c1cccc(C(F)(F)F)c1)C2)c1ncccn1` [Compound 122] was tested, and the “EC1.5 (concentration of test compound that results in 150% activation of SIRT1)” value was “A (EC1.5<10 μM)” and the Emax was less than 200%.
For `O=C(Nc1cccc2c1C(=O)N(c1cccc(C(F)(F)F)c1)C2)c1cscn1` [Compound 124], the “EC1.5 (concentration of test compound that results in 150% activation of SIRT1)” value was “C (EC1.5>25 μM)” and the Emax was less than 200%.
For `O=C(Nc1cccc2c1C(=O)N(c1cccc(C(F)(F)F)c1)C2)c1nccs1` [Compound 133], the “EC1.5 (concentration of test compound that results in 150% activation of SIRT1)” value was “C (EC1.5>25 μM)” and the Emax was less than 200%.
